The record followed here is ChEMBL document CHEMBL1123922.

Assay [1] concerns the target Prostaglandin G/H synthase 1 (Ovis aries) (UniProt P05979). Put plainly: Inhibition of PGH synthase by measuring oxygen consumption with a Clark oxygen electrode at 100 uM. On the set-up: scale not given: the % may be the effect or the level left.
The target is the same in assay [2]. Put plainly: Inhibition of PGH synthase was determined by measuring oxygen consumption with a Clark oxygen electrode at 25 uM. On the set-up: scale not given: the % may be the effect or the level left.

Sequence of Prostaglandin G/H synthase 1 (Ovis aries) (P05979 whole entry, looked up): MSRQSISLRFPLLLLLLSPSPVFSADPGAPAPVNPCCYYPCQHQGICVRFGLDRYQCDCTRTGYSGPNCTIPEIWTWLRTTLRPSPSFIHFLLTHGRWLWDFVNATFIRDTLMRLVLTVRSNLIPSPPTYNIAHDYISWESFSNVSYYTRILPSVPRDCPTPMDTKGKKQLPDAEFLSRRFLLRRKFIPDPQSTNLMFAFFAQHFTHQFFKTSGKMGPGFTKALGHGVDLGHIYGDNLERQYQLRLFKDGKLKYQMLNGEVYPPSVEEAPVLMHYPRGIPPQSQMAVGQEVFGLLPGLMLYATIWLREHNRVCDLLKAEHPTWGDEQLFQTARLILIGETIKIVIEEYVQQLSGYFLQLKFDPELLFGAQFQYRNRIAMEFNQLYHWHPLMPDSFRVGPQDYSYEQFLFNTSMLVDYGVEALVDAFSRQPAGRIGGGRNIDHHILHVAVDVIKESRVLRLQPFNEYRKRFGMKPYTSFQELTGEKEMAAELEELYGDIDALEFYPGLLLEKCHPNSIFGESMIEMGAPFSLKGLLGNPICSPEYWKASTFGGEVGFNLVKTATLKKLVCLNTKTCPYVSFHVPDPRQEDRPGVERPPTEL

Compound `O=C(CCl)NCCC1C(=O)N(c2ccccc2)N(c2ccccc2)C1=O` showed a Control in assay [1] of 90%. Regarding `CC(=C1C(=O)N(c2ccccc2)N(c2ccccc2)C1=O)c1ccccc1`, the Control in assay [1] stood at 31%; in assay [2] it was 73%.

As for `CC(C)=C1C(=O)N(c2ccccc2)N(c2ccccc2)C1=O`, the results for the Control in assay [1] and in assay [2] were 63% and 89%, respectively. For `O=C1C(CC#CCCl)C(=O)N(c2ccccc2)N1c1ccccc1` the same measures were 10% and 35%. In assay [1], `O=C(CBr)NCCC1C(=O)N(c2ccccc2)N(c2ccccc2)C1=O` gave a Control of 79%.

Turning to `O=C1C(=C/C=C/c2ccccc2)C(=O)N(c2ccccc2)N1c1ccccc1`, in assay [1], the Control was 96%. Take `CC(C)(C#N)C1C(=O)N(c2ccccc2)N(c2ccccc2)C1=O`: the results for the Control in assay [1] and in assay [2] were 5% and 23%, respectively.

As for `O=C(NCCC1C(=O)N(c2ccccc2)N(c2ccccc2)C1=O)Oc1ccccc1`, the Control in assay [1] turned out to be 42%; in assay [2] it was 78%. Regarding `CCC(C)=C1C(=O)N(c2ccccc2)N(c2ccccc2)C1=O`, the Control stood at 21% in assay [1] and 49% in assay [2]. Regarding `CCCC=C1C(=O)N(c2ccccc2)N(c2ccccc2)C1=O`, the Control in assay [1] turned out to be 18%; in assay [2], 29%.
